This is an account of results in EP3150201B1, “COMPOSITE PREPARATION COMPRISING 5- -REDUCTASE INHIBITOR-CONTAINING FILM COATING LAYER, AND METHOD FOR PRODUCING THE COMPOSITE PREPARATION” (Hanmi Pharm. Co., Ltd., priority 2014, dated 2016).

A short description of data set [1]: Solubility test of finasteride and coating materials (visual observation). It counts as physicochemical. To be noted: organic solvent-water mixture solvents of Comparative Example 1, 2, 5, 6, and 7; visually observed. On the procedure:
Finasteride, Kollicoat® IR, povidone, and polyvinyl alcohol were added to the organic solvent-water mixture solvents in a variety of ratios presented in Tables 1 to 4, and it was visually observed whether finasteride, Kollicoat® IR, povidone, and polyvinyl alcohol were soluble or not in each of the organic solvent-water mixture solvents.

Data set [2] in a line: Crystalline form analysis of dried film by X-ray diffractometry (Test Example 4). The format is physicochemical. To be noted: raw material powder or dried film from the film coating solution. On the procedure:
Each film coating solution prepared in Examples 2 and 7 and Comparative Example 2 was sprayed on a Petri dish and dried to form a film. These films were collected, and crystalline forms thereof were analyzed using an X-ray diffractometer (D8 Advance, Bruker) with Cu X-ray radiation at a voltage of 40 kV, at a current of 100 mA, and with a scan rate of 3 deg/min. The results of the X-ray diffractometry of finasteride powder as a raw material, and the dried films prepared using the film coating solutions of Examples 2 and 7 and Comparative Example 2 are shown in FIG. 5.

`CC(C)(C)NC(=O)[C@H]1CC[C@H]2[C@@H]3CC[C@H]4NC(=O)C=C[C@]4(C)[C@H]3CC[C@]12C` [Finasteride, finasteride]: the soluble or not result in data set [1] is recorded as “insoluble”. Besides, the crystalline form result in data set [2] is “crystalline”.
